Assay results taken from ChEMBL document CHEMBL3044753, “Polyamines May Modulate Both G Protein-Coupled Receptors and G Proteins” (Med Chem Res, 2004).
Calls of active or inactive are those of the source. No cut-off for these calls is given here.

Experiments:
Left cardiac atrium [1] = test: Negative ionotropic activity in electrically-paced Cavia porcellus (guinea pig) left atrium measured after 60 min by isometric transducer analysis in presence of AM 251; assay type: functional, tissue-based
Right cardiac atrium [2] = test: Negative […] activity in electrically-paced Cavia porcellus (guinea pig) right atrium assessed as effect on rate measured immediately by isometric transducer analysis in presence of benzalkonium/prazosin; assay type: functional, tissue-based
Left cardiac atrium [3] = test: Reversible negative ionotropic activity in electrically-paced Cavia porcellus (guinea pig) left atrium incubated for few seconds followed by compound washout measured after 3 hr by isometric transducer analysis in absence of benzalkonium/prazosin; assay type: functional, tissue-based
Left cardiac atrium [4] = test: Negative […] activity in electrically-paced Cavia porcellus (guinea pig) left atrium measured immediately by isometric transducer analysis in presence of benextramine; assay type: functional, tissue-based
Right cardiac atrium [5] = test: Negative […] activity in electrically-paced Cavia porcellus (guinea pig) right atrium measured immediately by isometric transducer analysis in presence of atropine; assay type: functional, tissue-based
Left cardiac atrium [6] = test: Negative […] activity in electrically-paced Cavia porcellus (guinea pig) left atrium measured immediately by isometric transducer analysis in presence of benzalkonium/prazosin; assay type: functional, tissue-based
Right cardiac atrium [7] = test: Negative […] activity in electrically-paced Cavia porcellus (guinea pig) right atrium measured immediately by isometric transducer analysis in presence of DPCPX; assay type: functional, tissue-based
Right cardiac atrium [8] = test: Negative ionotropic activity in electrically-paced Cavia porcellus (guinea pig) right atrium measured after 60 min by isometric transducer analysis in presence of pimozide; assay type: functional, tissue-based
Right cardiac atrium [9] = test: Negative […] activity in electrically-paced Cavia porcellus (guinea pig) right atrium measured immediately by isometric transducer analysis in presence of 4-DAMP mustard; assay type: functional, tissue-based
Left cardiac atrium [10] = test: Negative […] activity in electrically-paced Cavia porcellus (guinea pig) left atrium measured immediately by isometric transducer analysis in presence of naloxane; assay type: functional, tissue-based
Left cardiac atrium [11] = test: Negative ionotropic activity in electrically-paced Cavia porcellus (guinea pig) left atrium measured immediately by isometric transducer analysis in presence of DPCPX; assay type: functional, tissue-based
Left cardiac atrium [12] = test: Negative […] activity in electrically-paced Cavia porcellus (guinea pig) left atrium measured immediately by isometric transducer analysis in presence of benzalkonium; assay type: functional, tissue-based
Right cardiac atrium [13] = test: Negative ionotropic activity in electrically-paced Cavia porcellus (guinea pig) right atrium measured immediately by isometric transducer analysis in presence of methoctramine; assay type: functional, tissue-based
Left cardiac atrium [14] = test: Negative […] activity in electrically-paced Cavia porcellus (guinea pig) left atrium measured immediately by isometric transducer analysis in presence of atropine; assay type: functional, tissue-based
Right cardiac atrium [15] = test: Negative ionotropic activity in electrically-paced Cavia porcellus (guinea pig) right atrium measured immediately by isometric transducer analysis in presence of prazosin; assay type: functional, tissue-based
Right cardiac atrium [16] = test: Negative […] activity in electrically-paced Cavia porcellus (guinea pig) right atrium measured immediately by isometric transducer analysis in presence of ANR 83; assay type: functional, tissue-based
Right cardiac atrium [17] = test: Reversible negative ionotropic activity in electrically-paced Cavia porcellus (guinea pig) right atrium incubated for few seconds followed by compound washout measured after 3 hr by isometric transducer analysis in absence of benzalkonium/prazosin; assay type: functional, tissue-based
Right cardiac atrium [18] = test: Negative […] activity in electrically-paced Cavia porcellus (guinea pig) right atrium measured immediately by isometric transducer analysis in presence of […]; assay type: functional, tissue-based
Left cardiac atrium [19] = test: Negative […] activity in electrically-paced Cavia porcellus (guinea pig) left atrium measured immediately by isometric transducer analysis in presence of prazosin; assay type: functional, tissue-based
Left cardiac atrium [20] = test: Negative ionotropic activity in electrically-paced Cavia porcellus (guinea pig) left atrium measured immediately by isometric transducer analysis in presence of 4-DAMP mustard; assay type: functional, tissue-based
Right cardiac atrium [21] = test: Negative […] activity in electrically-paced Cavia porcellus (guinea pig) right atrium measured immediately by isometric transducer analysis in presence of benextramine; assay type: functional, tissue-based
Right cardiac atrium [22] = test: Negative ionotropic activity in electrically-paced Cavia porcellus (guinea pig) right atrium measured immediately by isometric transducer analysis in presence of pimozide; assay type: functional, tissue-based
Left cardiac atrium [23] = test: Negative […] activity in electrically-paced Cavia porcellus (guinea pig) left atrium measured immediately by isometric transducer analysis in presence of dihydroergocristine; assay type: functional, tissue-based
Left cardiac atrium [24] = test: Negative […] activity in electrically-paced Cavia porcellus (guinea pig) left atrium measured immediately by isometric transducer analysis in presence of benzalkonium/prazosin relative to arecaidine propargyl ester; assay type: functional
Right cardiac atrium [25] = test: Negative […] activity in electrically-paced Cavia porcellus (guinea pig) right atrium assessed as effect on force measured after 60 min by isometric transducer analysis in presence of benextramine/4-DAMP mustard relative to N-dodecyl lysine amide; assay type: functional
Left cardiac atrium [26] = test: Negative […] activity in electrically-paced Cavia porcellus (guinea pig) left atrium measured immediately by isometric transducer analysis in presence of methoctramine; assay type: functional, tissue-based
Right cardiac atrium [27] = test: Negative ionotropic activity in electrically-paced Cavia porcellus (guinea pig) right atrium assessed as effect on force measured immediately by isometric transducer analysis in absence of benzalkonium/prazosin relative to arecaidine propargyl ester; assay type: functional
Left cardiac atrium [28] = test: Negative ionotropic activity in electrically-paced Cavia porcellus (guinea pig) left atrium measured immediately by isometric transducer analysis in presence of AM 251; assay type: functional, tissue-based
Left cardiac atrium [29] = test: Negative ionotropic activity in electrically-paced Cavia porcellus (guinea pig) left atrium measured after 60 min by isometric transducer analysis in presence of AM 630; assay type: functional, tissue-based
Right cardiac atrium [30] = test: Negative ionotropic activity in electrically-paced Cavia porcellus (guinea pig) right atrium assessed as effect on force measured immediately by isometric transducer analysis in absence of benzalkonium/prazosin; assay type: functional, tissue-based
Right cardiac atrium [31] = test: Negative […] activity in electrically-paced Cavia porcellus (guinea pig) right atrium measured immediately by isometric transducer analysis in presence of benzalkonium; assay type: functional, tissue-based
Left cardiac atrium [32] = test: Negative […] activity in electrically-paced Cavia porcellus (guinea pig) left atrium measured immediately by isometric transducer analysis in presence of pimozide; assay type: functional, tissue-based
Right cardiac atrium [33] = test: Negative ionotropic activity in electrically-paced Cavia porcellus (guinea pig) right atrium assessed as effect on force measured immediately by isometric transducer analysis in presence of benzalkonium/prazosin; assay type: functional, tissue-based
Left cardiac atrium [34] = test: Negative […] activity in electrically-paced Cavia porcellus (guinea pig) left atrium measured immediately by isometric transducer analysis in presence of bupranolol; assay type: functional, tissue-based
Left cardiac atrium [35] = test: Negative ionotropic activity in electrically-paced Cavia porcellus (guinea pig) left atrium measured immediately by isometric transducer analysis in absence of benzalkonium/prazosin; assay type: functional, tissue-based
Left cardiac atrium [36] = test: Negative ionotropic activity in electrically-paced Cavia porcellus (guinea pig) left atrium measured after 60 min by isometric transducer analysis in presence of naloxane; assay type: functional, tissue-based
Left cardiac atrium [37] = test: Negative ionotropic activity in electrically-paced Cavia porcellus (guinea pig) left atrium measured immediately by isometric transducer analysis in presence of ANR 83; assay type: functional, tissue-based
Right cardiac atrium [38] = test: Negative […] activity in electrically-paced Cavia porcellus (guinea pig) right atrium assessed as effect on rate measured immediately by isometric transducer analysis in presence of benzalkonium/prazosin relative to arecaidine propargyl ester; assay type: functional
Right cardiac atrium [39] = test: Negative […] activity in electrically-paced Cavia porcellus (guinea pig) right atrium assessed as effect on rate measured immediately by isometric transducer analysis in absence of benzalkonium/prazosin; assay type: functional, tissue-based
Left cardiac atrium [40] = test: Negative ionotropic activity in electrically-paced Cavia porcellus (guinea pig) left atrium measured immediately by isometric transducer analysis in absence of benzalkonium/prazosin relative to arecaidine propargyl ester; assay type: functional
Right cardiac atrium [41] = test: Negative […] activity in electrically-paced Cavia porcellus (guinea pig) right atrium measured after 60 min by isometric transducer analysis in presence of thioperamide; assay type: functional, tissue-based
Right cardiac atrium [42] = test: Negative […] activity in electrically-paced Cavia porcellus (guinea pig) right atrium assessed as effect on rate measured immediately by isometric transducer analysis in absence of benzalkonium/prazosin relative to arecaidine propargyl ester; assay type: functional

## COc1ccccc1CN1CCC(C2CCN(C(=O)CCCCCCC(=O)N3CCC(C4CCN(Cc5ccccc5OC)CC4)CC3)CC2)CC1 [PIPERTRAMINE AMIDE]
Left cardiac atrium [1]
  Activity: Active
Right cardiac atrium [2]
  EC50: 1.51 nM
Left cardiac atrium [3]
  Activity: Active
Left cardiac atrium [4]
  Activity: Active
Right cardiac atrium [5]
  Activity: inactive
Left cardiac atrium [6]
  EC50: 0.0417 nM
Right cardiac atrium [7]
  Activity: Active
Right cardiac atrium [8]
  Activity: Active
Right cardiac atrium [9]
  Activity: inactive
Left cardiac atrium [10]
  Activity: Active
Left cardiac atrium [11]
  Activity: Active
Left cardiac atrium [12]
  Activity: Active
Right cardiac atrium [13]
  Activity: inactive
Left cardiac atrium [14]
  Activity: inactive
Right cardiac atrium [15]
  Activity: Active
Right cardiac atrium [16]
  Activity: Active
Right cardiac atrium [17]
  Activity: Active
Right cardiac atrium [18]
  Activity: Active
Left cardiac atrium [19]
  Activity: Active
Left cardiac atrium [20]
  Activity: inactive
Right cardiac atrium [21]
  Activity: Active
Right cardiac atrium [22]
  Activity: Active
Left cardiac atrium [23]
  Activity: Active
Left cardiac atrium [24]
  Efficacy: 60%
Right cardiac atrium [25]
  Efficacy: 82%
Left cardiac atrium [26]
  Activity: inactive
Right cardiac atrium [27]
  Efficacy: 79%
Left cardiac atrium [28]
  Activity: Active
Left cardiac atrium [29]
  Activity: Active
Right cardiac atrium [30]
  EC50: 1.55 nM
Right cardiac atrium [31]
  Activity: Active
Left cardiac atrium [32]
  Activity: Active
Right cardiac atrium [33]
  EC50: 2.29 nM
Left cardiac atrium [34]
  Activity: Active
Left cardiac atrium [35]
  EC50: 0.0316 nM
Left cardiac atrium [36]
  Activity: Active
Left cardiac atrium [37]
  Activity: Active
Right cardiac atrium [38]
  Efficacy: 42%
Right cardiac atrium [39]
  EC50: 0.977 nM
Left cardiac atrium [40]
  Efficacy: 58%
Right cardiac atrium [41]
  Activity: Active
Right cardiac atrium [42]
  Efficacy: 37%

## COc1ccccc1CN1CCC(C2CCN(CCCCCCCCN3CCC(C4CCN(Cc5ccccc5OC)CC4)CC3)CC2)CC1 [PIPERTRAMINE]
Left cardiac atrium [1]
  Activity: Active
Right cardiac atrium [8]
  Activity: Active
Right cardiac atrium [25]
  Efficacy: 72%
Left cardiac atrium [29]
  Activity: Active
Left cardiac atrium [36]
  Activity: Active
Right cardiac atrium [41]
  Activity: Active
